≈ marks a conversion by molar mass, not a printed value.
What was measured:
Type in all cases: functional
KB = assay: Cytotoxicity against human KB cells after 3 days by MTT assay; settings: 72 h, read-out: ED50 (the source's name)
A549 = assay: Cytotoxicity against human A549 cells after 6 days by MTT assay; settings: A549, 144 h, read-out: ED50 (the source's name)
P388 = assay: Cytotoxicity against mouse P388 cells after 3 days by MTT assay; settings: P388, 72 h, read-out: ED50 (the source's name)
HT-29 = assay: Cytotoxicity against human HT-29 cells after 6 days by MTT assay; settings: HT-29, 144 h, read-out: ED50 (the source's name)

Row | Compound | EC50 (KB) [µg/mL] | EC50 (A549) [µg/mL] | EC50 (P388) [µg/mL] | EC50 (HT-29) [µg/mL]
1 | C=C(C)[C@@H](CC)CC[C@@H](C)[C@H]1CC[C@H]2[C@@H]3C[C@@H](O)C4=CC(=O)CC[C@]4(C)[C@H]3CC[C@]12C | 1.3 (≈ 3.05 µM) | 2.1 (≈ 4.92 µM) | 0.7 (≈ 1.64 µM) | 0.3 (≈ 0.703 µM)
2 | C=C(C)[C@@H](CC)CC[C@@H](C)[C@H]1CC[C@H]2[C@@H]3C=C[C@@]4(OO)C[C@@H](O)CC[C@]4(C)[C@H]3CC[C@]12C | 1 (≈ 2.25 µM) | 1.1 (≈ 2.47 µM) | 0.5 (≈ 1.12 µM) | 0.9 (≈ 2.02 µM)
3 | C=C(C)[C@@H](CC)CC[C@@H](C)[C@H]1CC[C@H]2[C@@H]3C(=O)C=C4C[C@@H](O)CC[C@]4(C)[C@H]3CC[C@]12C | 1 (≈ 2.34 µM) | 1.2 (≈ 2.81 µM) | 0.8 (≈ 1.87 µM) | 2 (≈ 4.69 µM)
4 | C=C(C)[C@@H](CC)CC[C@@H](C)[C@H]1CC[C@H]2[C@@H]3[C@H](OO)C=C4C[C@@H](O)CC[C@]4(C)[C@H]3CC[C@]12C | 1 (≈ 2.25 µM) | 0.5 (≈ 1.12 µM) | 0.4 (≈ 0.899 µM) | 1 (≈ 2.25 µM)
5 | C=C(C)[C@@H](CC)CC[C@@H](C)[C@H]1CC[C@H]2[C@@H]3[C@H](O)C=C4C[C@@H](O)CC[C@]4(C)[C@H]3CC[C@]12C | 1.1 (≈ 2.57 µM) | 0.5 (≈ 1.17 µM) | 0.2 (≈ 0.467 µM) | 0.6 (≈ 1.4 µM)
6 | C=C(C)[C@@H](CC)CC[C@@H](C)[C@H]1CC[C@H]2[C@@H]3CC=C4C[C@@H](O)CC[C@]4(C)[C@H]3CC[C@]12C [CLEROSTEROL] | > 50 | 0.3 (≈ 0.727 µM) | 1.7 (≈ 4.12 µM) | 43.1 (≈ 104 µM)

From ChEMBL document CHEMBL1150079, “Oxygenated Clerosterols Isolated from the Marine Alga Codium arabicum” (1995)
